From patent US20050208511A1, “DMBT1 as a clinical marker and uses thereof” (priority 2003, published 2005)

Assays:
[1] = tested on: DMBT1; assay: DNA microarray analysis of DMBT1 expression in endometrium of ovariectomized monkeys; format: in vivo, cynomolgus monkeys (Macaca fascicularis); conditions: for effect on estrogen-induced increase in DMBT1 mRNA levels: OVX monkeys with estrogen implant plus mifepristone 10 mg/kg/d, microarray analysis and PCR
Description: (§1) Adult female cynomolgus monkeys (Macaca fascicularis) were obtained from Covance Research Products. Following one complete menstrual cycle and in the follicular phase of the subsequent menstrual cycle, the animals were ovariectomized by a mid-ventral laparotomy. Ovariectomized (OVX) animals were subject to estrogen treatment after the fourth week following ovariectomy.
Following this period, the OVX monkeys were euthanized and tissue biopsies were taken from endometria of the monkeys treated with estrogen and the placebo. (Details of the endometrial features in OVX monkeys and OVX+estrogen-treated monkeys is described in Example 4.) The biopsies were placed in sterile containers, snap frozen immediately in liquid nitrogen, and stored at −80° C. until processed. Total RNA was prepared from each endometrial tissue biopsy, as described below.
Total RNA was prepared from endometrial tissue biopsies (approximately 50 mg each) using RNAzol™ (Tel-Test, Friendswood, Tex.), as follows. Two milliliters of RNAzol™ were used per 100 mg of tissue. Tissues were homogenized for 2 to 3 minutes using a Tissue Tearor homogenizer (Model No. 985-370; BioSpec Products, Bartlesville, Okla.), then transferred to a glass mortar bowl. The tissues were ground with at least 10 strokes of the pestle until a clear suspension was obtained. The homogenates were transferred to a polypropylene conical flask, to which 0.1 mL of chloroform per 1 mL of homogenate was added. The mixtures were then shaken vigorously for 1 minute. The suspensions were then transferred to a 2 mL microcentrifuge tube and centrifuged for 15. minutes at 12000 g and at 4° C. in a fixed angle rotor using a Biofuge 17R centrifuge (Baxter, Deerfield, Ill.). The aqueous phase was carefully transferred to a new microcentrifuge tube. An equal volume of isopropanol was added to the aqueous phase, mixed gently, and incubated at 4° C. for 15 minutes. RNA was pelleted by centrifuging the mixture for 15 minutes at 12000 g and at 4° C. as described above. The supernatant was removed and the pellet washed with 75% (v/v) ethanol (Pharmco Products, Brookfield, Conn.), followed by centrifugation at 7500 g for 8 minutes at 4° C. The supernatant was removed, and then the RNA pellet was air-dried briefly and resuspended in RNase-free water (Promega, Madison, Wis.). The samples were then treated with Amplification Grade RNase-free DNase I to remove any residual DNA (Invitrogen, Carlsbad, Calif.). Specifically, twenty micrograms of RNA were treated in a reaction volume of 0.1 mL, containing 1× DNase I reaction buffer and 10 units of DNase I. The reaction continued at room temperature for 15 minutes. […]

[2] = tested on: endometrium; assay: average endometrial thickness in treated monkeys; format: in vivo, cynomolgus monkeys (Macaca fascicularis); conditions: Ovx/E2 + PRM 10 mg/kg daily oral, 19 days
Description: as §1
Animals and treatment were the same as Example 1 with the following exceptions. To study the effect of PRMs on the endometrium and gene expression, groups of three ovariectomized (OVX) monkeys were given an estrogen implant (E2), plus daily oral doses of the following PRMs for 19 days: mifepristone at 10 mg/kg/d; 17N11-DE (17β-N-substituted-11β-dimethylaminophenyl-estra-4,9-dien-3-one) 1.0, 3.0, or 10 mg/kg/d; 17N11-PE (17β-N-substituted-11β-piperidinylphenyl-estra-4,9-dien-3-one) at 1.0, 3.0, or 10 mg/kg/d. A placebo (0.5% methylcellulose) was administered as a control. 17N11-DE and 17N11-PE are two PRMs that have been described in PCT Publication No. WO 99/62928. Tissue samples were taken from endometria and myometria for histological analysis.

[3] = tested on: DMBT1; assay: quantitative RT-PCR of DMBT1 in uterus of ovariectomized rats; format: in vivo, Wistar rats; conditions: OVX rats, ethinyl estradiol + medroxyprogesterone acetate + 10 mg/kg mifepristone (FIG. 3B)
Protocol: Six weeks old ovariectomized Wistar rats (Charles River, Wilmington, Mass.) were dosed for either one day or six weeks with vehicle or test compounds. All treatments were delivered orally, once daily, in 0.5% methylcellulose or sesame oil. After treatment, the uteri were removed, total RNA was purified from the tissues using TRIzol reagent (Invitrogen, Carlsbad, Calif.) as directed by the manufacturer.
Quantitative reverse transcription-polymerase chain reactions (RT-PCR) of DMBT1 from rat RNA samples were carried out using a One-Step RT-PCR Master Mix Kit (Applied Biosystems, Foster City, Calif.) and an ABI Prism 7000 Sequence Detection System (Applied Biosystems), as described by the manufacturer. Commercially available primers and FAM-labeled MGB probes for human and rat DMBT1 (catalog numbers Hs00244827_ml and Rn00575705_ml, respectively) were obtained from Applied Biosystems (Foster City, Calif.). Messenger RNA levels were normalized against 18S ribosomal RNA levels determined using primers and a VIC- and TAMRA-labeled probe from the same vendor.

[4] = tested on: uterus; assay: uterine weight in 22-day-old female rats; format: in vivo, Sprague Dawley rats; conditions: oral; for uterine weight on co-treatment with estrone: 70 μg/kg/day estrone + 1 mg/kg/day compound, three days (FIG. 1); for uterine weight: compound alone, three days, estrone 70 μg/kg/day, others 1 mg/kg/day, vs control (FIG. 1)
Protocol: (§2) Ten groups of 22-day-old female Sprague Dawley rats (three animals per group) were used to evaluate the effects of estrone, tamoxifen, raloxifene, and ICI 182780 on DMBT1 expression in the uterus. The following groups of rats were treated for three days as follows:
(§3) All treatments were delivered orally in 0.5% Methocel. After treatment the animals were euthanized and the uteri were collected, weighed, frozen in liquid nitrogen, and stored at −20° C. RNA was purified from the frozen uteri using 1.0 mL of TRIzol Reagent (Invitrogen) and a PowerGen 25 tissue homogenizer (Fisher Scientific), according to the manufacturer's instructions.
In rats, uteri increase in size under the proliferative influence of estrogen, and this increase in size can be measured by weighing the tissues.
Administration of the treatments and collection of tissue samples were carried out according to the procedure described in Example 2. RNA was purified, blotted and hybridized to radioactively labeled rat ebnerin cDNA as in described in Example 2.

[5] = tested on: DMBT1; assay: Northern analysis of DMBT1 expression in rat uterus; format: in vivo, Sprague Dawley rats; conditions: 70 μg/kg/day estrone + 1 mg/kg/day compound, relative to estrone alone (FIG. 3A)
Protocol: as §2, §3
Northern analysis was performed to determine gene expression, including DMBT1 expression, in the uterus of control and treated rats. For gel electrophoresis, samples containing 2 μg of total RNA in a volume of 2 μL of water were added to 6 microliters of formaldehyde loading dye (Ambion) and incubated at 65° C. for 20 minutes. One microliter of a 0.1 mg/ml ethidium bromide solution was then added to each sample. […] The RNA was transferred to a Hybond-N membrane (Amersham) for […] by capillary transfer blotting, using 10×SSC (0.15 M Sodium citrate, pH 7.0, 1.5 M NaCl), after which the membranes were stained with ethidium bromide, destained with water, and photographed for lane loading comparison. The membranes were then air-dried and kept at room temperature until hybridization.
A glycerol stock of a bacterial clone carrying a plasmid (pINCY) containing the rat ebnerin (DMBT1) gene was obtained from Incyte Genomics (ID#: 0000101155000011). […] One colony was selected and used to inoculate 200 mL of Lennox L Broth (Sigma)+50 μg/mL ampicillin (Sigma). The liquid culture was grown overnight at 37° C. and the bacteria were collected by centrifugation. Purification of plasmid DNA was carried out using a QIAfilter plasmid maxi kit (QIAgen) according to the manufacturer's instructions.
Purified pINCY/DMBT1 was treated with the restriction enzymes EcoRI and NotI (Promega) for the preparation and isolation of a 1,174 bp DNA fragment containing the ebnerin probe (DMBT1). The products of the restriction enzyme reaction were separated by electrophoresis on a 1× TAE, 1% SeaKem Gold Agarose Reliant gel, and the band corresponding to the 1.174 kb DNA ebnerin clone was excised. The ebnerin DNA probe was purified from the gel slice using a QIAquick Gel Extraction Kit (QIAgen) according to the manufacturer's instructions. Bound DNA was eluted from the QIAgen column with 50 μL of elution buffer. The ebnerin DNA probe in the eluate was quantified by comparison to a DNA standard by gel electrophoresis. The ebnerin DNA probe was then diluted to a final concentration of 25 ng/μL.
Random-primed probe was made from 25 ng of the purified ebnerin DNA using a DECAprime II kit (Ambion) and Redivue α-^32P dATP (10 mCi/mL) (Amersham) according to the manufacturer's instructions, with the exception that the reaction was incubated for 30 minutes at 37° C. After adding EDTA to stop the reaction, the labeled probe was purified using a QIAquick Nucleotide Removal Kit (QIAgen) according to the manufacturer's instructions, with the final volume of eluted probe being 50 μL. Two microliters were counted in a scintillation counter to ensure optimal radionuclide incorporation (>2×10^6 cpm/μL).
The blot membrane as described in section A was wet in 2×SSC buffer (Sigma) for 15 minutes, then pre-hybridized in 10 mL RapidHyb (Amersham) at 65° C. for 20 minutes. The probe was boiled for 10 minutes, and 25 μL was added to 10 mL of RapidHyb, pre-warmed to 65° C. The blot membrane was added to the diluted probe solution and incubated, with rotation, in a hybridization oven for approximately 10 hours.
The membrane was removed from the probe-containing solution and rinsed twice with 2×SSPE +0.5% SDS+0.5% pyrophosphate at room temperature, and then washed once, with gentle agitation, for 30 minutes at room temperature in the same solution.

[6] = tested on: DMBT1; assay: immunohistochemical analysis of DMBT1 expression in rat uterus; format: in vivo, Wistar rats; conditions: OVX rats dosed six weeks; compared with estrogen (ethinyl estradiol)
Protocol: Tissues were trimmed and processed for paraffin embedding according to conventional methods. Five-micron sections were cut, mounted onto SuperFrost Plus+(Fisher Scientific, Pittsburgh, Pa.) microscopic slides and dried overnight. […] Briefly, tissue sections on microscopic slides were dewaxed and re-hydrated. Slides were microwaved for 5 min in Target buffer (Dako, Carpenturia, Calif.), cooled, placed in phosphate-buffered saline (PBS, pH 7.4) and treated with 3% (v/v) H2O2 for 10 min at room temperature. All incubations (30 min each) and washes were performed at room temperature. Normal rabbit blocking serum (Vector Labs, Burlingame, Calif.) was placed on all slides for 10 min. After a brief rinse in PBS, sections were treated with goat polyclonal DMBT1 primary antibody (1:25, Hypromatrix, Worcester, Mass.). Slides were then washed in PBS and treated with rabbit anti-goat biotinylated secondary antibodies (Vector Labs). […]
The rabbit polyclonal PCNA (proliferating cell nuclear antigen) antibody (1:4000; Sigma, St. Louis, Mo.) was detected using the HRP:SG detection system as described for routine single IHC, except the use of the SG chromogen (Vector Labs). […] DMBT1 was then detected using the Fast Red chromogen (Sigma, St. Louis, Mo.). […]

[7] = tested on: luminal epithelium; assay: luminal epithelium thickening in rat uterus sections; format: in vivo, Wistar rats; conditions: OVX rats dosed six weeks, compared to sham and ovariectomized control; estrogen = ethinyl estradiol
Protocol: Mature, six week-old ovariectomized or sham-operated Wistar rats (Charles River) were dosed with ethinyl estradiol, tamoxifen or raloxifene for six weeks. Uteri were removed, sectioned for immunohistochemical analysis for DMBT1 expression using a polyclonal goat antibody against the human protein.
Tissues were trimmed and processed for paraffin embedding according to conventional methods. Five-micron sections were cut, mounted onto SuperFrost Plus+(Fisher Scientific, Pittsburgh, Pa.) microscopic slides and dried overnight. The protocols for routine single immunohistochemistry (IHC) have been described previously (D'Andrea et al., 2001, Biotechnic Histochem. 76:97-106). Briefly, tissue sections on microscopic slides were dewaxed and re-hydrated. Slides were microwaved for 5 min in Target buffer (Dako, Carpenturia, Calif.), cooled, placed in phosphate-buffered saline (PBS, pH 7.4) and treated with 3% (v/v) H2O2 for 10 min at room temperature. All incubations (30 min each) and washes were performed at room temperature. Normal rabbit blocking serum (Vector Labs, Burlingame, Calif.) was placed on all slides for 10 min. After a brief rinse in PBS, sections were treated with goat polyclonal DMBT1 primary antibody (1:25, Hypromatrix, Worcester, Mass.). Slides were then washed in PBS and treated with rabbit anti-goat biotinylated secondary antibodies (Vector Labs). After washing in PBS, the avidin-biotin-horseradish peroxidase complex reagent (HRP, Vector Labs) was added. All slides were washed and treated with 3,3′-diaminobenzidine (DAB, Biomeda, Foster City, Calif.) two times for 5 min each, rinsed in distilled water, and counterstained with hematoxylin.

Compound | effect on estrogen-induced increase in DMBT1 mRNA levels [1] | effect on estrogen-induced increase in DMBT1 mRNA levels ([1]; listed as Mifepristone) | repression of estrogen-induced DMBT1 mRNA levels ([1]; Ovx/E2 + 10 mg/kg, microarray (FIG. 7)) | Endometrial Thickness (mm) [2] | Endometrial Thickness (mm) ([2]; listed as Mif) | effect on progestin blockade of DMBT1 mRNA increase [3] | uterine weight on co-treatment with estrone [4] | uterine weight [4] | DMBT1 expression on coadministration with estrone [5] | cell levels of DMBT1 (immunostaining) in luminal epithelium [6] | thickening of the luminal epithelium [7]
CC#C[C@]1(O)CC[C@H]2[C@@H]3CCC4=CC(=O)CCC4=C3[C@@H](c3ccc(N(C)C)cc3)C[C@@]21C [mifepristone] | inhibited | prevented the increase in DMBT1 mRNA levels | about 20 fold | shrinks to about the thickness of that seen with leuprolide-treated tissue | 1.17 | blocked in turn | – | – | – | – | –
O=C(c1ccc(OCCN2CCCCC2)cc1)c1c(-c2ccc(O)cc2)sc2cc(O)ccc12 [raloxifene] | – | – | – | – | – | – | lower uterine weights, as compared to estrone | did not significantly affect uterine weight | additive increase | higher cell levels of DMBT1 than estrogen | not with raloxifene treatment
CC/C(=C(\c1ccccc1)c1ccc(OCCN(C)C)cc1)c1ccccc1 [tamoxifen] | – | – | – | – | – | – | lower uterine weights, as compared to estrone | increases uterine weight only moderately | increased slightly | higher cell levels of DMBT1 than estrogen | even more pronounced
